Source: patent US20240383901A1, “SUBSTITUTED PYRROLO[2,3-D]PYRIMIDINES, THEIR PREPARATION AND THEIR THERAPEUTIC APPLICATION” (SANOFI, priority 2021, published 2024)

How the values were obtained:
Type in all cases: biochemical
LRRK2 = LRRK2 (Homo sapiens, UniProt Q5S007); assay: LRRK2 WT assay (Assay B, radiometric 33P-ATP filter binding); details: Assay B (values marked *)
Description: LRRK2(human) is incubated with 50 mM HEPES pH 8.0, 0.2 mM EDTA, 0.01% Brij-35, 1% (w/v) BSA, 5 mM DTT, 250 Mm […], 10 mM Magnesium acetate and [[…]]-ATP (specific activity and concentration as required).
The reaction is initiated by the addition of the Mg/ATP mix.

full-length LRRK2 G2019S = target: T1, full-length LRRK2 G2019S (Homo sapiens, UniProt Q5S007, G2019S); assay: LRRK2-G2019S kinase activity assay (Lanthascreen TR-FRET); details: 1.1 mM ATP
T1 construct: DYKDDDDK (FLAG)
T1 sequence (Q5S007 whole entry G2019S): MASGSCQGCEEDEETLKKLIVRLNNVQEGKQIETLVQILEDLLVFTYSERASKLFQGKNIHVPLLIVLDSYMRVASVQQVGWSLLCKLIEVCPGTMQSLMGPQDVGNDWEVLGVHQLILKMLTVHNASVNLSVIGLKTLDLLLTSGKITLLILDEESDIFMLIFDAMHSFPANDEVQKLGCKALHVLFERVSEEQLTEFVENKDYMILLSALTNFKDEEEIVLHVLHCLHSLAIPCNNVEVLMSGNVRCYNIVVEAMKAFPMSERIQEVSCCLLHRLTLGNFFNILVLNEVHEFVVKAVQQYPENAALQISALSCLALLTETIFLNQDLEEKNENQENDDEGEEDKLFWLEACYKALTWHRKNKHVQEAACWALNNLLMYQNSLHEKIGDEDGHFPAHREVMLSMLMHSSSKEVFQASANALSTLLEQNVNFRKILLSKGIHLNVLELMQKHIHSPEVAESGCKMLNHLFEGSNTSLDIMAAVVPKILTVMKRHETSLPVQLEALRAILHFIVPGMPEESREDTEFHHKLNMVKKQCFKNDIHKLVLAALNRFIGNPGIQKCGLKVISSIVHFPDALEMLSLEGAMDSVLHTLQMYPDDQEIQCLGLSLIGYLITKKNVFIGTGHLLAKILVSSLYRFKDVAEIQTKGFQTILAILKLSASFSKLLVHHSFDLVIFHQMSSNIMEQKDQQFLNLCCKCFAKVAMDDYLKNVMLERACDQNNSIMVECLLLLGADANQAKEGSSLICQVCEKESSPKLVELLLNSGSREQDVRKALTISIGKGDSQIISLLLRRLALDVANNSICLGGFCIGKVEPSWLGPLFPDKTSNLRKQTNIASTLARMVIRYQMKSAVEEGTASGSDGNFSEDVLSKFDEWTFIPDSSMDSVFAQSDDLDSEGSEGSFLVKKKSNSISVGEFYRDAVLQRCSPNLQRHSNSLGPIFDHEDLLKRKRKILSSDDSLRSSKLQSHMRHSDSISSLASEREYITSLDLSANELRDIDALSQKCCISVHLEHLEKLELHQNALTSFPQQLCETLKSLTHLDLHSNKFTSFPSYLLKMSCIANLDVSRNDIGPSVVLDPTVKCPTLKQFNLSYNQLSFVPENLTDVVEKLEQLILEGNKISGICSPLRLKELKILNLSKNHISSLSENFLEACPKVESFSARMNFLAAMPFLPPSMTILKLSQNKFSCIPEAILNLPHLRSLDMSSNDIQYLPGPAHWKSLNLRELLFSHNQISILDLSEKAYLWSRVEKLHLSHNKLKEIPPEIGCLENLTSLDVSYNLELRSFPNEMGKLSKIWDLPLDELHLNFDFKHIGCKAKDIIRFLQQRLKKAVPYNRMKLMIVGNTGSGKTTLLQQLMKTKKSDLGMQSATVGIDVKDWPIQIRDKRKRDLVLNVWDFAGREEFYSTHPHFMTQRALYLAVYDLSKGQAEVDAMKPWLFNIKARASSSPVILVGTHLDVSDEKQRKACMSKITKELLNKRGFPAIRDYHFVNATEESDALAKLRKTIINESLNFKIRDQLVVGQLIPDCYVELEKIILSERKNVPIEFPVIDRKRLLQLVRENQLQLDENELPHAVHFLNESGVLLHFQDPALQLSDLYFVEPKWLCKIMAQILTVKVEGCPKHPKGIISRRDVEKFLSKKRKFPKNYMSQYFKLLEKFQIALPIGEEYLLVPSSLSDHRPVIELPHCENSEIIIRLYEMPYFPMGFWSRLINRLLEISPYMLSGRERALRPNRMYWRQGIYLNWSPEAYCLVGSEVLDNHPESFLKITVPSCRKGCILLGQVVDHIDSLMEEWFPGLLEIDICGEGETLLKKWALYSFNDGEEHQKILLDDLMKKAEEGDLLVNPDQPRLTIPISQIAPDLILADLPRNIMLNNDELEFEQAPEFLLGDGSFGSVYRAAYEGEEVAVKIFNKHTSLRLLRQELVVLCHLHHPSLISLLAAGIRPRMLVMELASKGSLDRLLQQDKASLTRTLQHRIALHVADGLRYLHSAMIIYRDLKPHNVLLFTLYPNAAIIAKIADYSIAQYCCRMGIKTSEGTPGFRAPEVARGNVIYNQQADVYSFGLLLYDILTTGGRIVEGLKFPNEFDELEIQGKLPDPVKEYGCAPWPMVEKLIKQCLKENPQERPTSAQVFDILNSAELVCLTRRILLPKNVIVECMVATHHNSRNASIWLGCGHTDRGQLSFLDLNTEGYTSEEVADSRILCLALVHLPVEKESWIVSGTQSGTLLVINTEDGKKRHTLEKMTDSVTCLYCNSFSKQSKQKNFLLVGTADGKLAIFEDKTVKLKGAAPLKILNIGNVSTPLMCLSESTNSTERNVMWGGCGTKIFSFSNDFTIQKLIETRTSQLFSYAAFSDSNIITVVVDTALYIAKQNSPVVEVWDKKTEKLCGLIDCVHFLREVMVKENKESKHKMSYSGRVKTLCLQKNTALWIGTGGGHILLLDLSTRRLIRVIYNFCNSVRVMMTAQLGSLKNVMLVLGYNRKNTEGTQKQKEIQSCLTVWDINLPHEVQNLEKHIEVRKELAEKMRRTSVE

[1] = target: T2, full-length LRRK2 wild type (Homo sapiens, UniProt Q5S007); assay: LRRK2 WT assay (Assay A, Lanthascreen TR-FRET, 500 uM ATP); details: Assay A (values without *)
T2 construct: DYDDDDK tagged full-length LRRK2 wild type is used
T2 sequence (Q5S007 whole entry): as the sequence (Q5S007 whole entry G2019S) above, with S2019G counted along it

Sequence of LRRK2 (Q5S007 whole entry): as the sequence (Q5S007 whole entry G2019S) above, with S2019G counted along it

| Compound | IC50 (LRRK2) | IC50 (full-length LRRK2 G2019S) | IC50 [1] |
| --- | --- | --- | --- |
| CC[C@@H](C)Oc1nn(C)cc1Nc1ncc2cc(C#N)n([C@@H]3COC[C@@H]3OC)c2n1 [Example 66, 2-((3-((R)-sec-Butoxy)-1-methyl-1H-pyrazol-4-yl)amino)-7-((3R,4R)-4-methoxytetrahydrofuran-3-yl)-7H-pyrrolo[2,3-d]pyrimidine-6-carbonitrile] | 119 nM |  |  |
| [2H]C([2H])([2H])n1cc(Nc2ncc3cc(C#N)n([C@H]4COC[C@@H]4C)c3n2)c(OC(C)C)n1 [Example 42, 2-((3-Isopropoxy-1-(methyl-d3)-1H-pyrazol-4-yl)amino)-7-((3R,4R)-4-methyltetrahydrofuran-3-yl)-7H-pyrrolo[2,3-d]pyrimidine-6-carbonitrile] |  | 2 nM | 1 nM |
| [2H]C([2H])([2H])n1cc(Nc2ncc3cc(C#N)n([C@@H](C)COC)c3n2)c(OC2COC2(C)C)n1 (single isomer, unassigned) [Example 99] |  | 36 nM | 34 nM |
| C[C@H]1COC[C@@H]1n1c(C#N)cc2cnc(Nc3cn(C)nc3OC3CCC34COC4)nc21 (stereo partly drawn) [Example 40, 2-[[1-methyl-3-[(2-oxaspiro[3.3]heptan-7-yl)oxy]pyrazol-4-yl]amino]-7-[(3R,4R)-4-methyltetrahydrofuran-3-yl]pyrrolo[2,3-d]pyrimidine-6-carbonitrile] |  | 1 nM | 1 nM |
| C[C@@H]1OC[C@H]1n1c(C#N)cc2cnc(Nc3cn(C)nc3OC3COC3)nc21 (single isomer, unassigned) [Example 77, 7-[(trans)-2-methyloxetan-3-yl]-2-[[1-methyl-3-(oxetan-3-yloxy)pyrazol-4-yl]amino]pyrrolo[2,3-d]pyrimidine-6-carbonitrile] |  | 21 nM | 34 nM |
| [2H]C([2H])([2H])n1cc(Nc2ncc3cc(C#N)n([C@@H](C)COC)c3n2)c(OC2CCOC2)n1 (single isomer, unassigned) [Example 101] |  | 34 nM | 40 nM |
| COCC(C)n1cc(Nc2ncc3cc(C#N)n([C@@H](C)COC)c3n2)c(OC2COC2)n1 (single isomer, unassigned) [Example 130] |  | 57 nM | 61 nM |
| C[C@@H]1COC[C@H]1Oc1nn(C)cc1Nc1ncc2cc(C#N)n([C@H]3COC[C@@H]3C)c2n1 (single isomer, unassigned) [Example 2] |  | 5 nM | 5 nM |
| CO[C@@H]1COC[C@H]1Oc1nn(C)cc1Nc1ncc2cc(C#N)n([C@H]3COC[C@@H]3C)c2n1 (single isomer, unassigned) [Example 12] |  | 6 nM | 8 nM |
| [2H]C([2H])([2H])n1cc(Nc2ncc3cc(C#N)n(C4CCOCC4)c3n2)c(OC2COC2(C)C)n1 (single isomer, unassigned) [Example 120, 2-((3-((2,2-dimethyloxetan-3-yl)oxy)-1-(methyl-d3)-1 H-pyrazol-4-yl)amino)-7-(tetrahydro-2H-pyran-4-yl)-7H-pyrrolo[2,3-d]pyrimidine-6-carbonitrile] |  | 179 nM | 173 nM |
| CC(C)Oc1nn(C)cc1Nc1ncc2cc(C#N)n([C@@H]3CO[C@H]3C)c2n1 (single isomer, unassigned) [Example 78, 7-[(trans)-2-methyloxetan-3-yl]-2-[(1-methyl-3-propan-2-yloxypyrazol-4-yl)amino]pyrrolo[2,3-d]pyrimidine-6-carbonitrile] |  | 64 nM | 79 nM |
| C[C@H]1COC[C@@H]1n1c(C#N)cc2cnc(Nc3cn(C(C)(C)C#N)nc3OC3COC3)nc21 [Example 27, 2-((1-(2-Cyanopropan-2-yl)-3-(oxetan-3-yloxy)-1H-pyrazol-4-yl)amino)-7-((3R,4R)-4-methyltetrahydrofuran-3-yl)-7H-pyrrolo[2,3-d]pyrimidine-6-carbonitrile] |  | 1 nM | 1 nM |
| CO[C@@H]1COC[C@H]1n1c(C#N)cc2cnc(Nc3cn(C)nc3OC3COC3)nc21 (racemic) [Example 70, 7-((trans)-4-methoxytetrahydrofuran-3-yl)-2-((1-methyl-3-(oxetan-3-yloxy)-1 H-pyrazol-4-yl)amino)-7H-pyrrolo[2,3-d]pyrimidine-6-carbonitrile] |  | 160 nM | 270 nM |
| C[C@@H]1COCC[C@H]1n1c(C#N)cc2cnc(Nc3cn(CCO)nc3OC3COC3)nc21 (single isomer, unassigned) [Example 160, 2-((1-(2-hydroxyethyl)-3-(oxetan-3-yloxy)-1 H-pyrazol-4-yl)amino)-7-(trans-3-methyltetrahydro-2H-pyran-4-yl)-7H-pyrrolo[2,3-d]pyrimidine-6-carbonitrile] |  | 258 nM | 325 nM |
| CC(Oc1nn(C)cc1Nc1ncc2cc(C#N)n([C@H]3COC[C@@H]3C)c2n1)C(F)(F)F (single isomer, unassigned) [Example 22] |  | 25 nM | 30 nM |
| CC(C(F)F)n1cc(Nc2ncc3cc(C#N)n([C@H]4COC[C@@H]4C)c3n2)c(OC2COC2)n1 (single isomer, unassigned) [Example 5] |  | 5 nM | 4 nM |
| COCC(C)n1c(C#N)cc2cnc(Nc3cn(C4CCC(C)(O)CC4)nc3OC(C)C)nc21 [Example 104, cis-2-((1-(4-hydroxy-4-methylcyclohexyl)-3-isopropoxy-1H-pyrazol-4-yl)amino)-7-((S)-1-methoxypropan-2-yl)-7H-pyrrolo[2,3-d]pyrimidine-6-carbonitrile] |  | 42 nM | 44 nM |
| CO[C@@H]1COC[C@H]1Oc1nn(C)cc1Nc1ncc2cc(C#N)n([C@H]3COC[C@@H]3C)c2n1 (single isomer, unassigned) [Example 13] |  | 9 nM | 13 nM |
| [2H]C([2H])([2H])n1cc(Nc2ncc3cc(C#N)n([C@H]4COC[C@@H]4C)c3n2)c(O[C@@H]2COC[C@H]2O)n1 (single isomer, unassigned) [Example 114] |  | 28 nM | 20 nM |
| [2H]C([2H])([2H])n1cc(Nc2ncc3cc(C#N)n([C@@H](C)COC)c3n2)c(O[C@@H]2COC[C@@H]2O)n1 (single isomer, unassigned) [Example 136] |  | 81 nM | 95 nM |
| CCn1cc(Nc2ncc3cc(C#N)n([C@H]4COC[C@@H]4C)c3n2)c(OC2COC2)n1 [Example 38, 2-((1-Ethyl-3-(oxetan-3-yloxy)-1H-pyrazol-4-yl)amino)-7-((3R,4R)-4-methyltetrahydrofuran-3-yl)-7H-pyrrolo[2,3-d]pyrimidine-6-carbonitrile] |  | 5 nM | 6 nM |
| [2H]C([2H])([2H])n1cc(Nc2ncc3cc(C#N)n([C@H]4COC[C@@H]4C)c3n2)c(OC2CCOC2)n1 (single isomer, unassigned) [Example 112] |  | 16 nM | 13 nM |
| COCn1cc(Nc2ncc3cc(C#N)n([C@H]4COC[C@@H]4C)c3n2)c(O[C@@H]2CO[C@H]2C)n1 (mixture of isomers) [Example 39, 2-[[1-(methoxymethyl)-3-[(trans)-2-methyloxetan-3-yl]oxy-pyrazol-4-yl]amino]-7-[(3R,4R)-4-methyltetrahydrofuran-3-yl]pyrrolo[2,3-d]pyrimidine-6-carbonitrile] |  | 8 nM | 10 nM |
| CC(C)Oc1nn(C2COC2)cc1Nc1ncc2cc(C#N)n([C@H]3COC[C@@H]3C)c2n1 [Example 31, 2-((3-Isopropoxy-1-(oxetan-3-yl)-1H-pyrazol-4-yl)amino)-7-((3R,4R)-4-methyltetrahydrofuran-3-yl)-7H-pyrrolo[2,3-d]pyrimidine-6-carbonitrile] |  | 2 nM | 2 nM |
| C[C@H]1COC[C@@H]1n1c(C#N)cc2cnc(Nc3cn(S(C)(=O)=O)nc3OC3COC3)nc21 [Example 34, 2-((1-(Methylsulfonyl)-3-(oxetan-3-yloxy)-1H-pyrazol-4-yl)amino)-7-((3R,4R)-4-methyltetrahydrofuran-3-yl)-7H-pyrrolo[2,3-d]pyrimidine-6-carbonitrile] |  | 5 nM | 7 nM |
| [2H]C([2H])([2H])n1cc(Nc2ncc3cc(C#N)n([C@H]4COC[C@@H]4C)c3n2)c(OC2COC(C)(C)C2)n1 (single isomer, unassigned) [Example 110] |  | 8 nM | 4 nM |
| COCC(C)n1c(C#N)cc2cnc(Nc3cn(C4CCC(C)(O)CC4)nc3OC3CC3)nc21 [Example 106, cis-2-((3-cyclopropoxy-1-(4-hydroxy-4-methylcyclohexyl)-1H-pyrazol-4-yl)amino)-7-((S)-1-methoxypropan-2-yl)-7H-pyrrolo[2,3-d]pyrimidine-6-carbonitrile] |  | 55 nM | 70 nM |
| C[C@H]1COC[C@H]1n1c(C#N)cc2cnc(Nc3cn(C)nc3OC3COC3)nc21 (single isomer, unassigned) [Example 46, 2-((1-methyl-3-(oxetan-3-yloxy)-1 H-pyrazol-4-yl)amino)-7-((cis)-4-methyltetrahydrofuran-3-yl)-7H-pyrrolo[2,3-d]pyrimidine-6-carbonitrile] |  | 413 nM | 489 nM |
| CO[C@H]1COC[C@H]1n1c(C#N)cc2cnc(Nc3cn(C(C)C#N)nc3OC(C)C)nc21 (single isomer, unassigned) [Example 56] |  | 4 nM | 7 nM |
| COC[C@H](C)n1c(C#N)cc2cnc(Nc3cn(CCO)nc3OC3CCOCC3)nc21 [Example 138, (S)-2-((1-(2-hydroxyethyl)-3-((tetrahydro-2H-pyran-4-yl)oxy)-1 H-pyrazol-4-yl)amino)-7-(1-methoxypropan-2-yl)-7H-pyrrolo[2,3-d]pyrimidine-6-carbonitrile] |  | 11 nM | 11 nM |
